Source: ChEMBL document CHEMBL2074025 (AIDS, 2002)
One block for each compound: values may come before it.

How the values were obtained:
Format in all cases: functional, cell-based
[1] = molecular target: T1, Multidrug resistance-associated protein 1 (Homo sapiens, UniProt P33527); test: TP_TRANSPORTER: inhibition of Calcein efflux (Calcein: 0.05 micro;M, Amprenavir: 0.02 uM) in UMCC-1/VP cells
[2] = molecular target: T1, Multidrug resistance-associated protein 1; test: TP_TRANSPORTER: inhibition of Calcein efflux (Calcein: 0.05 micro;M, Indinavir: 0.114 uM) in UMCC-1/VP cells
[3] = molecular target: T1, Multidrug resistance-associated protein 1; test: TP_TRANSPORTER: inhibition of Calcein efflux (Calcein: 0.05 micro;M, Lamivudine: 0.55 uM) in UMCC-1/VP cells
[4] = molecular target: T1, Multidrug resistance-associated protein 1; test: TP_TRANSPORTER: inhibition of Calcein efflux (Calcein: 0.05 micro;M, Zidovudine: 0.02 uM) in UMCC-1/VP cells

T1 sequence (P33527 whole entry): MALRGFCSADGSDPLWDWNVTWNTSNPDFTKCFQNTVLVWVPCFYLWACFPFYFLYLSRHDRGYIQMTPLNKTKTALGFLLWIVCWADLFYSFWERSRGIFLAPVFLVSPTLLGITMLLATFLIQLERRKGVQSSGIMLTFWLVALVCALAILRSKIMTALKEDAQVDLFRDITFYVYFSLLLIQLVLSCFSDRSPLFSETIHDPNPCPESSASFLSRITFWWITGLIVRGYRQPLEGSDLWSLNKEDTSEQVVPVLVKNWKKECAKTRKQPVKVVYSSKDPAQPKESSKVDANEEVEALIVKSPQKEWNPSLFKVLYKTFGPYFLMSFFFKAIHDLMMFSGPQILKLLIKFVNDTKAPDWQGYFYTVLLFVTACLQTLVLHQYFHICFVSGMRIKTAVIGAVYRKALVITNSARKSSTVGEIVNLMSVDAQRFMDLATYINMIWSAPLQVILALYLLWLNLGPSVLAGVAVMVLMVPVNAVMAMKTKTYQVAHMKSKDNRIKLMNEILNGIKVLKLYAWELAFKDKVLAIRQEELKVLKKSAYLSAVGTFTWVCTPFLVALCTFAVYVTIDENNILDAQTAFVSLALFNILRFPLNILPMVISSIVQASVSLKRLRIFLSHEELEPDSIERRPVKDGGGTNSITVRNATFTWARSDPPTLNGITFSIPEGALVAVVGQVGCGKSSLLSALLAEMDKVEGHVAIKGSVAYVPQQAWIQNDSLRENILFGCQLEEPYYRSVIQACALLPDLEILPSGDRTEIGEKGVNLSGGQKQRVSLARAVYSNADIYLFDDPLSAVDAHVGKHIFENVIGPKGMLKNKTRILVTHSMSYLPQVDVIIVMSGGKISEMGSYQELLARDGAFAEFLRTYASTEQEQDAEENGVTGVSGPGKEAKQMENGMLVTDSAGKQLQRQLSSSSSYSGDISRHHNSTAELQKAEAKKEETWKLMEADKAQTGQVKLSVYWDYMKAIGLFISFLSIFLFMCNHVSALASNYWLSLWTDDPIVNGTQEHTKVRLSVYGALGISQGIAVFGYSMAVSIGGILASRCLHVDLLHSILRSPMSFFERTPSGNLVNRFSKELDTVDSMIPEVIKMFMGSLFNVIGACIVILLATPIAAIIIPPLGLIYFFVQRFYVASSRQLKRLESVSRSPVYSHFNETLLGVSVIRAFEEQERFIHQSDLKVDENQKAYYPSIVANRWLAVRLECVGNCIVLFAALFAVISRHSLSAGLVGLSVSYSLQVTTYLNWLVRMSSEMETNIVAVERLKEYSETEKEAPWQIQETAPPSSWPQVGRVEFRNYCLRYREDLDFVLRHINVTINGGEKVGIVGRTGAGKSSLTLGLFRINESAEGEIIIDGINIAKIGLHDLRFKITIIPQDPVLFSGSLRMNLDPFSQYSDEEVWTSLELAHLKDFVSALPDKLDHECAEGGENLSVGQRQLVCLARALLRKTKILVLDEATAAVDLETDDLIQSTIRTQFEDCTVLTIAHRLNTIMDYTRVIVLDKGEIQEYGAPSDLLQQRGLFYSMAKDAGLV

Activity [1]: is not an inhibitor [-]
Structure (SMILES): CC(C)CN(C[C@@H](O)[C@H](Cc1ccccc1)NC(=O)O[C@H]1CCOC1)S(=O)(=O)c1ccc(N)cc1

Activity [2]: is not an inhibitor [-]
Structure (SMILES): CC(C)(C)NC(=O)[C@@H]1CN(Cc2cccnc2)CCN1C[C@@H](O)C[C@@H](Cc1ccccc1)C(=O)N[C@H]1c2ccccc2C[C@H]1O.O

Activity [3]: is not an inhibitor [-]
Structure (SMILES): Nc1ccn([C@@H]2CS[C@H](CO)O2)c(=O)n1 [LAMIVUDINE]

Activity [4]: is not an inhibitor [-]
Structure (SMILES): Cc1cn([C@H]2C[C@H](N=[N+]=[N-])[C@@H](CO)O2)c(=O)[nH]c1=O [ZIDOVUDINE]
